Laboratory results reported in patent US20250161337A1, “IMMUNOSUPPRESSIVE COMPOSITION CONTAINING L-AHG” (Kyungpook National University Industry-Academic Cooperation …, priority 2022, published 2025).

Columns and labels:
Format in all cases: cell-based, mouse
[1] = system: T cells activated with immobilized anti-CD3/anti-CD28; test: [3H]-thymidine incorporation (proliferation) of G0 T cells activated with immobilized anti-CD3/anti-CD28; conditions: for effect on [3H]thymidine incorporation of activated T cells: 25 to 400 μg/mL
Procedure: (§1) Isolation of resting (G0) T lymphocytes from spleens from 4-5-month-old C57BL/6J male mice was performed by a negative selection method from splenocytes using a T cell purification column kit (R&D Systems, Minneapolis, Minn., USA). At this time, the activation of G0 T cells was performed using a modification of the method of Kim et al., wherein pretreatment with rabbit anti-hamster IgG antibody (20 μg/mL) was performed so that the surface of the culture plastic container was smoothly coated with anti-CD3 (2.0 μg/mL) and anti-CD28 (2.0 μg/mL).
To evaluate the proliferation of T cells activated by immobilized anti-CD3/anti-CD28, 1×10^5 G0 T cells and each concentration of L-AHG together with 200 μL of RPMI 1640 complete medium were added to each well of a 96-well plate coated with anti-CD3 (2.0 μg/mL) and anti-CD28 (2.0 μg/mL), and activation of the cells was initiated by culture. At 29 hours after the activation, 0.25 μCi of [^3H]-thymidine was added to each well, and the amount of [^3H]-thymidine incorporated into the DNA of proliferating T cells was quantified by a liquid scintillation counter while the cells were further cultured for 12 hours.
First, using a 96-well plate, resting T cells (1×10^5 G0 T cells/well) were stimulated and activated with immobilized anti-CD3/anti-CD28 in the presence of various concentrations (0, 12.5, 25, 50, 100, 200, and 400 μg/mL) of L-AHG, NA2, NA4, or NA6. At 29 hours after the activation, 0.25 μCi of [^3H]thymidine was added to each well, followed by further culturing for an additional 12 hours. The amount of [^3H]thymidine incorporated into DNA following the T cell proliferation that occurred during this additional culturing time was quantified with a liquid scintillation counter, thereby determining the degree of T cell proliferation that occurred in each well.

CD4 T cells = test: First cell cycle progression of activated resting CD4 T cells, nocodazole arrest, DAPI flow cytometry
Procedure: as §1
(§2) To analyze the cell cycle of T cells activated by immobilized anti-CD3/anti-CD28 or to analyze the cytokine concentration in the culture supernatant, 3×10^6 G0 T cells and each concentration of L-AHG together with 2 mL of RPMI 1640 complete medium were added to each well of a 35-mm plate coated with anti-CD3 (2.0 μg/mL) and anti-CD28 (2.0 μg/mL), and activation of the cells was initiated by culture. At 30 hours after the activation, the culture was stopped and the cells and the culture supernatant were recovered by centrifugation.
(§3) Under the same culture conditions, in order for the first cell cycle progression initiated by the activation of G0 T cells to be arrested in prometaphase by nocodazole treatment, T lymphocytes were activated for 20 hours, and then nocodazole was added thereto at a concentration of 0.2 μg/mL, followed by followed by further culturing for an additional 10 hours. After completion of the culturing, the culture was centrifuged to recover the cells and the culture supernatant.
(§4) Resting (G0) T cells isolated from mouse splenocytes using a T cell purification column kit (R & D) and T cells obtained by activating G0 T cells with immobilized anti-CD3/anti-CD28 for a given period of time were subjected to anti-CD3, anti-CD4, anti-CD8, and DAPI staining.
(§5) About 5×10^5 cells were suspended in 100 μL of 1×PBS/1% FBS solution, and then 0.5 μg of anti-CD3, 0.5 μg of anti-CD4, and 0.5 μg of anti-CD8 were added thereto and allowed to react at 4° C. for 15 minutes, followed by washing twice with 1×PBS/1% FBS solution. Subsequently, the cells were fixed with 1% paraformaldehyde solution at 4° C. for 15 minutes, and the fixed cells were washed twice with 1×PBS solution and then stained with 10 μM DAPI for 15 minutes. The stained cells were analyzed with an Attune NxT flow cytometer (Thermo Fisher Scientific, Waltham, MA, USA) to determine the proportions of CD3 T cells, CD4 T cells, and CD8 T cells and the cell cycle distribution based on the increase in blue fluorescence depending on the amount of DAPI bound to intracellular DNA.
To this end, resting T cells were stimulated and activated with immobilized anti-CD3/anti-CD28, and when these cells reached the time point at which S phase started following G0 exit and G1 entry and progression, that is, when 20 hours have elapsed after the activation, the microtubule depolymerization agent nocodazole (a cell cycle-arresting agent that arrests cell cycle progression of eukaryotic cells at the prometaphase of M phase) was added to the cells, followed by further culturing for 10 hours. Through this unique experimental method, the first cell cycle initiated following the activation of resting T cells was allowed to progress through the G1, S, and G2 phases, and then arrest in the prometaphase of M phase due to microtubule damage caused by the effect of nocodazole. Then, these cells were recovered, treated and stained with fluorescently labeled anti-CD4 antibody, fluorescently labeled anti-CD8 antibody, and the DNA fluorescent staining reagent DAPI, and analyzed with a flow cytometer. As a result, the present inventors investigated how the aspect of the first cell cycle progression (G1, S, and G2/M phases), which is initiated following the activation of resting CD4 T cells and resting CD8 T cells, is affected by L-AHG.

CD8 T cells = test: First cell cycle progression of activated resting CD8 T cells, nocodazole arrest, DAPI flow cytometry
Procedure: as §1, §2, §3, §4, §5
To this end, resting T cells were stimulated and activated with immobilized anti-CD3/anti-CD28, and when these cells reached the time point at which S phase started following G0 exit and G1 entry and progression, that is, when 20 hours have elapsed after the activation, the microtubule depolymerization agent nocodazole (a cell cycle-arresting agent that arrests cell cycle progression of eukaryotic cells at the prometaphase of M phase) was added to the cells, followed by further culturing for 10 hours. […] Then, these cells were recovered, treated and stained with fluorescently labeled anti-CD4 antibody, fluorescently labeled anti-CD8 antibody, and the DNA fluorescent staining reagent DAPI, and analyzed with a flow cytometer. […]

IFN-γ = IFN-γ in culture supernatant of activated T cells, ELISA; conditions: 30 h after activation
Procedure: as §2
(§6) After recovering the culture supernatant of T cells, the concentrations of IFN-γ, IL-2, IL-4 and IL-13 therein were analyzed using an ELISA kit (Mouse Uncoated Elisa Kit, Invitrogen) according to the manufacturer's instructions. […] The reaction was terminated by adding 100 μl of a reaction stop solution to each well, and the absorbances at wavelengths of 450 nm and 570 nm were measured with a Varioskan Lux Multimode Microplate Reader (Thermo Fisher Scientific). At this time, the value obtained by subtracting the absorbance measured at a wavelength of 570 nm from the absorbance measured at a wavelength of 450 nm was compared with a standard curve to determine the concentrations of cytokines present in the culture supernatant. […]

IL-2 = IL-2 in culture supernatant of activated T cells, ELISA; conditions: 25, 50, and 100 μg/mL; 30 h after activation
Procedure: as §2, §6

IL-4 = IL-4 in culture supernatant of activated T cells, ELISA; conditions: 30 h after activation
Procedure: as §2, §6

IL-13 = IL-13 in culture supernatant of activated T cells, ELISA; conditions: 25, 50, and 100 μg/mL; 30 h after activation
Procedure: as §2, §6

[2] = 100 μg/mL, 30 h after activation, nocodazole from 20 h

OC[C@H]1O[C@@H](O)[C@H](O)[C@@H](O[C@@H]2O[C@H]3CO[C@@H]([C@@H]2O)[C@@H]3O[C@@H]2O[C@H](CO)[C@H](O)[C@H](O[C@@H]3O[C@H]4CO[C@@H]([C@@H]3O)[C@@H]4O)[C@H]2O)[C@H]1O [NA4, neoagarotetraose, reference compound]
effect on [3H]thymidine incorporation of activated T cells [1]: no significant effect

OC[C@H]1O[C@@H](O)[C@H](O)[C@@H](O[C@@H]2O[C@H]3CO[C@@H]([C@@H]2O)[C@@H]3O[C@@H]2O[C@H](CO)[C@H](O)[C@H](O[C@@H]3O[C@H]4CO[C@@H]([C@@H]3O)[C@@H]4O[C@@H]3O[C@H](CO)[C@H](O)[C@H](O[C@@H]4O[C@H]5CO[C@@H]([C@@H]4O)[C@@H]5O)[C@H]3O)[C@H]2O)[C@H]1O [NA6, neoagarohexaose, reference compound]
effect on [3H]thymidine incorporation of activated T cells [1]: no significant effect

O=C[C@@H](O)[C@@H]1OC[C@H](O)[C@H]1O [L-AHG, 3,6-anhydro-L-galactose]
effect on the proliferation of activated T cells ([3H]thymidine incorporation) ([1]; 12.5 μg/ml, [3H]thymidine added 29 h after activation, 12 h further culture): no significant effect | [3H]thymidine incorporation relative to untreated control group ([1]; 100 μg/mL): about 22% | effect on [3H]thymidine incorporation of activated T cells [1]: inhibited [^3H]thymidine incorporation in a concentration-dependent manner | [3H]thymidine incorporation ([1]; 200 to 400 μg/mL): significantly decreased to an unmeasurable level | percentage of G1-phase CD4 T cells (CD4 T cells; [2]): 35.4% | percentage of G2/M phase CD4 T cells (CD4 T cells; [2]): 8.8% | percentage of S-phase CD4 T cells (CD4 T cells; [2]): 54.6% | percentage of CD4 T cells remaining in the G1+S phase without entering G2/M (CD4 T cells; 100 μg/ml, 30 h after activation, nocodazole from 20 h): about 90.0% | apoptotic cell death (proportion of apoptotic sub-G1 cells) in CD4 T cells (CD4 T cells; 25-100 μg/mL): not induced | percentage of CD4 T cells remaining in G1 and S phases without entering G2/M (CD4 T cells; 25 to 100 μg/ml, nocodazole from 20 h): increased in a manner dependent on the concentration | change in the percentage of G1-phase CD8 T cells (CD8 T cells; [2]): negligible | percentage of G2/M CD8 T cells (CD8 T cells; [2]): 41.8% | percentage of S-phase CD8 T cells (CD8 T cells; [2]): 46.6% | apoptotic cell death (proportion of apoptotic sub-G1 cells) in CD8 T cells (CD8 T cells; 25-100 μg/mL): not induced | cell cycle progression after activation of resting CD8 T cells (CD8 T cells; 25 to 50 μg/mL, nocodazole from 20 h): hardly affected | IFN-γ concentration in culture supernatant (IFN-γ; 25 μg/mL): hardly affected | IFN-γ concentration in culture supernatant (IFN-γ; 25, 50, and 100 μg/mL): significantly decreased | IL-2 concentration in culture supernatant (IL-2): significantly decreased | IL-4 concentration relative to untreated control group (IL-4; 25 μg/mL): 38.5% | IL-4 concentration in culture supernatant (IL-4; 25, 50, and 100 μg/mL): significantly decreased | IL-13 concentration in culture supernatant (IL-13): significantly decreased

OC[C@H]1OC(O)[C@H](O)[C@@H](O[C@@H]2O[C@H]3CO[C@@H]([C@@H]2O)[C@@H]3O)[C@H]1O (stereo partly drawn) [NA2, neoagarobiose, reference compound]
effect on [3H]thymidine incorporation of activated T cells [1]: no significant effect
